Assay results: patent US9833497B2, “Human originated EGF domain proteins and use of the same” (CHENGDU SOURCEBIO LIMITED-LIABILITY COMPANY, priority 2013, dated 2017)

Columns and labels:
Assay type in all cases: cell-based
Citrobacter diversus = experiment: MIC against Gram-negative bacteria: Citrobacter diversus; details: for MIC (μg/mL) C. diversus / MIC C. diversus: 5×10^5 CFU/mL
Outline: (§1)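 Bacteria grown in LB at 37° C with shaking to McFarland 0.5, pelleted and resuspended in fresh LB, then seeded at 5×10^5 CFU/mL per well. Purified recombinant human EGF domain proteins were two-fold serially diluted in triplicate and plates shaken at 37° C, 175 rpm. MIC is the lowest protein concentration with no bacterial growth.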

E. coli DH5α = experiment: Antibacterial activity: MIC and growth curve against E. coli DH5α in 96-well plate; details: minimal inhibitory concentration against E. coli DH5α; 96-well plate, 5×10^5 CFU/mL, 37° C., judged after 8 h
Outline: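 Log-phase DH5α (OD600 about 0.5, 37° C, 185 rpm in LB) was pelleted, resuspended in fresh LB and seeded at 5×10^5 CFU/mL with recombinant protein at 50, 25 and 12.5 μg/mL (two-fold series), in triplicate. Plates were shaken at 175 rpm, 37° C, and OD600 was read every 30 min. MIC was the lowest concentration with no growth.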

Moraxella catarrhalis = experiment: MIC against Gram-negative bacteria: Moraxella catarrhalis; details: for MIC (μg/mL) M. catarrhalis / MIC M. catarrhalis: 5×10^5 CFU/mL
Outline: as §1

Klebsiella pneumonia = experiment: MIC against Gram-negative bacteria: Klebsiella pneumonia; details: for MIC (μg/mL) K. pneumonia / MIC K. pneumonia: 5×10^5 CFU/mL
Outline: as §1

Aeromonas hydrophila = experiment: MIC against Gram-negative bacteria: Aeromonas hydrophila; details: for MIC (μg/mL) A. hydrophila / MIC A. hydrophila: 5×10^5 CFU/mL
Outline: as §1

Serratia marcescens = experiment: MIC against Gram-negative bacteria: Serratia marcescens; details: for MIC (μg/mL) S. marcescens / MIC S. marcescens: 5×10^5 CFU/mL
Outline: as §1

Enterobacter cloacae = experiment: MIC against Gram-negative bacteria: Enterobacter cloacae; details: for MIC (μg/mL) E. cloacae / MIC E. cloacae: 5×10^5 CFU/mL
Outline: as §1

Proteus vulgaris = experiment: MIC against Gram-negative bacteria: Proteus vulgaris; details: for MIC (μg/mL) P. vulgaris / MIC P. vulgaris: 5×10^5 CFU/mL
Outline: as §1

E. coli BL21 = experiment: MIC against Gram-negative bacteria: E. coli BL21; details: for MIC (μg/mL) E. coli BL21 / MIC E. coli BL21: 5×10^5 CFU/mL
Outline: as §1

Proteus mirabilis = experiment: MIC against Gram-negative bacteria: Proteus mirabilis; details: for MIC (μg/mL) P. mirabilis / MIC P. mirabilis: 5×10^5 CFU/mL
Outline: as §1

Pseudomonas aeruginosa = experiment: MIC against Gram-negative bacteria: Pseudomonas aeruginosa; details: for MIC (μg/mL) P. aeruginosa / MIC P. aeruginosa: 5×10^5 CFU/mL
Outline: as §1

[1] = C. diversus, 10 h cultivation at 37° C.
[2] = M. catarrhalis, 10 h cultivation at 37° C.
[3] = K. pneumonia, 10 h cultivation at 37° C.
[4] = A. hydrophila, 10 h cultivation at 37° C.
[5] = S. marcescens, 10 h cultivation at 37° C.
[6] = E. cloacae, 10 h cultivation at 37° C.
[7] = P. vulgaris, 10 h cultivation at 37° C.
[8] = E. coli BL21, 10 h cultivation at 37° C.
[9] = P. mirabilis, 10 h cultivation at 37° C.
[10] = P. aeruginosa, 10 h cultivation at 37° C.
[11] = 10 h cultivation at 37° C., two-fold serial dilution

“PRT192 (CPGSGERRICSHHGVCSNEGKCICQPDWTGKDC; listed as Homo sapiens)” was tested, and the “MIC (μg/mL) C. diversus” value (Citrobacter diversus; [1]) was 25 µg/mL, the MIC (E. coli DH5α) was 25 µg/mL and the “MIC (μg/mL) M. catarrhalis” value (Moraxella catarrhalis; [2]) was 12.5 µg/mL. For the same substance, the “MIC (μg/mL) K. pneumonia” value (Klebsiella pneumonia; [3]) was 12.5 µg/mL, the “MIC (μg/mL) A. hydrophila” value (Aeromonas hydrophila; [4]) was 50 µg/mL and the “MIC (μg/mL) S. marcescens” value (Serratia marcescens; [5]) was 12.5 µg/mL. The “MIC (μg/mL) E. cloacae” value (Enterobacter cloacae; [6]) was 25 µg/mL, the “MIC (μg/mL) P. vulgaris” value (Proteus vulgaris; [7]) was 50 µg/mL and the “MIC (μg/mL) E. coli BL21” value (E. coli BL21; [8]) was 50 µg/mL. For the same substance, the “MIC (μg/mL) P. mirabilis” value (Proteus mirabilis; [9]) was 25 µg/mL and the “MIC (μg/mL) P. aeruginosa” value (Pseudomonas aeruginosa; [10]) was 25 µg/mL.
“PRT1181 (KEAVCKQGCNLLHGGCTVPGECRCSYGWQGRFCD; listed as Homo sapiens)” was tested, and the “MIC C. diversus” value (Citrobacter diversus; [11]) was 12.5 µg/mL, the MIC (E. coli DH5α) was 12.5 µg/mL and the “MIC M. catarrhalis” value (Moraxella catarrhalis; [11]) was 50 µg/mL. For the same substance, the “MIC K. pneumonia” value (Klebsiella pneumonia; [11]) was 50 µg/mL, the “MIC A. hydrophila” value (Aeromonas hydrophila; [11]) was 25 µg/mL and the “MIC S. marcescens” value (Serratia marcescens; [11]) was 25 µg/mL. The “MIC E. cloacae” value (Enterobacter cloacae; [11]) was 25 µg/mL, the “MIC P. vulgaris” value (Proteus vulgaris; [11]) was 50 µg/mL and the “MIC E. coli BL21” value (E. coli BL21; [11]) was 50 µg/mL. The “MIC P. mirabilis” value (Proteus mirabilis; [11]) was 100 µg/mL and the “MIC P. aeruginosa” value (Pseudomonas aeruginosa; [11]) was 12.5 µg/mL.
“PRT211 (DIDECSYSSYLCQYRCVNEPGRFSCHCPQGYQ; listed as Homo sapiens)” was tested, and the “MIC (μg/mL) C. diversus” value (Citrobacter diversus; [1]) was 25 µg/mL, the MIC (E. coli DH5α) was 25 µg/mL and the “MIC (μg/mL) M. catarrhalis” value (Moraxella catarrhalis; [2]) was 12.5 µg/mL. For the same substance, the “MIC (μg/mL) K. pneumonia” value (Klebsiella pneumonia; [3]) was 12.5 µg/mL, the “MIC (μg/mL) A. hydrophila” value (Aeromonas hydrophila; [4]) was 50 µg/mL and the “MIC (μg/mL) S. marcescens” value (Serratia marcescens; [5]) was 25 µg/mL. For the same substance, the “MIC (μg/mL) E. cloacae” value (Enterobacter cloacae; [6]) was 25 µg/mL, the “MIC (μg/mL) P. vulgaris” value (Proteus vulgaris; [7]) was 50 µg/mL and the “MIC (μg/mL) E. coli BL21” value (E. coli BL21; [8]) was 12.5 µg/mL. The “MIC (μg/mL) P. mirabilis” value (Proteus mirabilis; [9]) was 25 µg/mL and the “MIC (μg/mL) P. aeruginosa” value (Pseudomonas aeruginosa; [10]) was 25 µg/mL.
In the case of “PRT695 (DVDECHRVPPPCDLGRCENTPGSFLCVCPAGYQAAPHGASCQ; listed as Homo sapiens)”, the “MIC C. diversus” value (Citrobacter diversus; 96-well plate, 37° C., 10 h) is reported as 50 µg/mL, the MIC (E. coli DH5α) is reported as 25 µg/mL and the “MIC M. catarrhalis” value (Moraxella catarrhalis; 96-well plate, 37° C., 10 h) is reported as 50 µg/mL. The “MIC K. pneumonia” value (Klebsiella pneumonia; 96-well plate, 37° C., 10 h) was 25 µg/mL, the “MIC A. hydrophila” value (Aeromonas hydrophila; 96-well plate, 37° C., 10 h) was 25 µg/mL and the “MIC S. marcescens” value (Serratia marcescens; 96-well plate, 37° C., 10 h) was 12.5 µg/mL. For the same substance, the “MIC E. cloacae” value (Enterobacter cloacae; 96-well plate, 37° C., 10 h) was 12.5 µg/mL, the “MIC P. vulgaris” value (Proteus vulgaris; 96-well plate, 37° C., 10 h) was 50 µg/mL and the “MIC E. coli BL21” value (E. coli BL21; 96-well plate, 37° C., 10 h) was 12.5 µg/mL. For the same substance, the “MIC P. mirabilis” value (Proteus mirabilis; 96-well plate, 37° C., 10 h) was 12.5 µg/mL and the “MIC P. aeruginosa” value (Pseudomonas aeruginosa; 96-well plate, 37° C., 10 h) was 25 µg/mL.
With “PRT653 (DVDECEDPQSSCLGGECKNTVGSYQCLCPQGFQLANGTVCE; listed as Homo sapiens)” the “MIC C. diversus” value (Citrobacter diversus; 96-well plate, 37° C., 10 h) was 50 µg/mL, the MIC (E. coli DH5α) was 25 µg/mL and the “MIC M. catarrhalis” value (Moraxella catarrhalis; 96-well plate, 37° C., 10 h) was 25 µg/mL. The “MIC K. pneumonia” value (Klebsiella pneumonia; 96-well plate, 37° C., 10 h) was 50 µg/mL, the “MIC A. hydrophila” value (Aeromonas hydrophila; 96-well plate, 37° C., 10 h) was 12.5 µg/mL and the “MIC S. marcescens” value (Serratia marcescens; 96-well plate, 37° C., 10 h) was 25 µg/mL. For the same substance, the “MIC E. cloacae” value (Enterobacter cloacae; 96-well plate, 37° C., 10 h) was 25 µg/mL, the “MIC P. vulgaris” value (Proteus vulgaris; 96-well plate, 37° C., 10 h) was 50 µg/mL and the “MIC E. coli BL21” value (E. coli BL21; 96-well plate, 37° C., 10 h) was 12.5 µg/mL. For the same substance, the “MIC P. mirabilis” value (Proteus mirabilis; 96-well plate, 37° C., 10 h) was 12.5 µg/mL and the “MIC P. aeruginosa” value (Pseudomonas aeruginosa; 96-well plate, 37° C., 10 h) was 25 µg/mL.
In the case of “PRT1110 (RREQCRPLPCVHGGSCVDLWTHFRCDCARPHRGPTCA; listed as Homo sapiens)”, the “MIC C. diversus” value (Citrobacter diversus; [11]) is reported as 50 µg/mL, the MIC (E. coli DH5α) is reported as 25 µg/mL and the “MIC M. catarrhalis” value (Moraxella catarrhalis; [11]) is reported as 12.5 µg/mL. For the same substance, the “MIC K. pneumonia” value (Klebsiella pneumonia; [11]) was 12.5 µg/mL, the “MIC A. hydrophila” value (Aeromonas hydrophila; [11]) was 12.5 µg/mL and the “MIC S. marcescens” value (Serratia marcescens; [11]) was 25 µg/mL. The “MIC E. cloacae” value (Enterobacter cloacae; [11]) was 50 µg/mL, the “MIC P. vulgaris” value (Proteus vulgaris; [11]) was 50 µg/mL and the “MIC E. coli BL21” value (E. coli BL21; [11]) was 50 µg/mL. The “MIC P. mirabilis” value (Proteus mirabilis; [11]) was 25 µg/mL and the “MIC P. aeruginosa” value (Pseudomonas aeruginosa; [11]) was 25 µg/mL.
Substance “PRT912 (DVNECLSNPCDARGTQNCVQRVNDFHCECRAGHTGRRCE; listed as Homo sapiens)” has an MIC (Citrobacter diversus; [1]) of 50 µg/mL, an MIC (E. coli DH5α) of 25 µg/mL and an MIC (Moraxella catarrhalis; [2]) of 12.5 µg/mL. The MIC (Klebsiella pneumonia; [3]) was 50 µg/mL, the MIC (Aeromonas hydrophila; [4]) was 100 µg/mL and the MIC (Serratia marcescens; [5]) was 50 µg/mL. For the same substance, the MIC (Enterobacter cloacae; [6]) was 25 µg/mL, the MIC (Proteus vulgaris; [7]) was 100 µg/mL and the MIC (E. coli BL21; [8]) was 12.5 µg/mL. For the same substance, the MIC (Proteus mirabilis; [9]) was 50 µg/mL and the MIC (Pseudomonas aeruginosa; [10]) was 25 µg/mL.
